In data set [1] the test system is CSF1R Ba/F3 cells. The data set can be described thus: Cell viability assay, Ba/F3 cells engineered to be dependent on CSF1R. It counts as cell-based. Conditions: duplicate measurements; for IC50: Mus musculus, BaF3, Ba/F3 cells dependent on CSF1R; for CSF1R Ba/F3 IC50: Ba/F3 cells dependent on CSF1R.
Data set [2] concerns IL-3 dependent Ba/F3 cell line (CSF1R independent). The data set can be described thus: Control assay for cellular toxicity, Ba/F3 cells dependent on IL-3. It counts as cell-based. Conditions: Mus musculus, BaF3; Ba/F3 cells dependent on IL-3, control for cellular toxicity.
The target of data set [3] is T1, CSF1R (Homo sapiens, UniProt P07333).
T1 sequence (P07333 539-972 limits assumed): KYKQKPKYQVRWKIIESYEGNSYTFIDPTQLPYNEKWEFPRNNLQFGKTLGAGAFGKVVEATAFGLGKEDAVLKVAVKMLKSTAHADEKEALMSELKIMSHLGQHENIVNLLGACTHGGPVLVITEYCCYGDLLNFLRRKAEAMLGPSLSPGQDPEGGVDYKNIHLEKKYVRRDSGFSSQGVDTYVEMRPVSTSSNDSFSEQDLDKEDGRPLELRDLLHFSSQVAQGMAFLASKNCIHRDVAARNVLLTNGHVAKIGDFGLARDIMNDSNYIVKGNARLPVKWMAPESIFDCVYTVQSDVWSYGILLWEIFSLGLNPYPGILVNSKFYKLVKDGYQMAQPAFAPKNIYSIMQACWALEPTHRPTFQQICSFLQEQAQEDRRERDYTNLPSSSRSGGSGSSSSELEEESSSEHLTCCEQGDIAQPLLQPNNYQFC
The data set can be described thus: CSF1R enzymatic inhibition, TR-FRET-based LANCE Ultra assay. In kind it is biochemical. The conditions noted are these: single 8-point titrations, ATP concentration 25 µM, read-out: Enz. IC50.

Data set [4] in a line: Kinetic solubility, spectrophotometric. In kind it is physicochemical. The conditions noted are these: aqueous buffer, kinetic from dmso stock, spectrophotometrically at pH 7.4 in HEPES buffer.

The structures appear in SMILES notation. Converted amounts (≈) assume the structure as drawn.

`Cc1cccc(CN(C)c2ncnc3[nH]c(-c4cn(-c5ccccc5)nn4)cc23)c1` [Compound 18a, N-Methyl-N-(3-methylbenzyl)-6-(1-phenyl-1H-1,2,3-triazol-4-yl)-7H-pyrrolo[2,3-d]pyrimidin-4-amine]: the results for the half-inhibitory concentration (IC50) in data set [1], in data set [2] and in data set [3] were greater than 10 µM, greater than 10 µM and 1.9 nM, respectively. This compound also returned a kinetic solubility in data set [4] of 0.3 µM (≈ 0.119 µg/mL).
On to `CN(CC1CCOCC1)c1ncnc2[nH]c(-c3cn(-c4ccccc4)nn3)cc12` [Compound 18b, N-Methyl-6-(1-phenyl-1H-1,2,3-triazol-4-yl)-N-((tetrahydro-2H-pyran-4-yl)methyl)-7H-pyrrolo[2,3-d]pyrimidin-4-amine], for which the IC50 in data set [1] and in data set [2] was greater than 10 µM throughout. This compound gave a kinetic solubility in data set [4] of 14 µM (≈ 5.45 µg/mL).
Take `Cc1cccc(CN(C)c2ncnc3[nH]c(-c4cn(-c5ccc(F)cc5)nn4)cc23)c1` [Compound 19a, 6-(1-(4-Fluorophenyl)-1H-1,2,3-triazol-4-yl)-N-methyl-N-(3-methylbenzyl)-7H-pyrrolo[2,3-d]pyrimidin-4-amine]: the IC50 in data set [1] is greater than 10 µM; in data set [2], greater than 10 µM; in data set [3], 7.7 nM. This compound also yielded a kinetic solubility in data set [4] of 0.4 µM (≈ 0.165 µg/mL).
`CN(CC1CCOCC1)c1ncnc2[nH]c(-c3cn(-c4ccc(F)cc4)nn3)cc12` [Compound 19b, 6-(1-(4-Fluorophenyl)-1H-1,2,3-triazol-4-yl)-N-methyl-N-((tetrahydro-2H-pyran-4-yl)methyl)-7H-pyrrolo[2,3-d]pyrimidin-4-amine]: in data set [1], the “CSF1R Ba/F3 IC50” value is “No measurable cell activity”. In addition, the IC50 in data set [1] was greater than 10 µM; in data set [2], greater than 10 µM; in data set [3], 2.1 nM. Also, in data set [4], the solubility (kinetic) amounted to 11 µM (≈ 4.48 µg/mL).
Turning to `Cc1ccc(-n2cc(-c3cc4c(N(C)Cc5cccc(C)c5)ncnc4[nH]3)nn2)cc1` [Compound 20a, N-Methyl-N-(3-methylbenzyl)-6-(1-(p-tolyl)-1H-1,2,3-triazol-4-yl)-7H-pyrrolo[2,3-d]pyrimidin-4-amine], the IC50 in data set [1] was greater than 10 µM; in data set [2] it was greater than 10 µM; in data set [3], 28.2 nM. Further, in data set [4], the solubility (kinetic) stood at 3 µM (≈ 1.23 µg/mL).
In the case of `Cc1ccc(-n2cc(-c3cc4c(N(C)CC5CCOCC5)ncnc4[nH]3)nn2)cc1` [Compound 20b, N-Methyl-N-((tetrahydro-2H-pyran-4-yl)methyl)-6-(1-(p-tolyl)-1H-1,2,3-triazol-4-yl)-7H-pyrrolo[2,3-d]pyrimidin-4-amine], the half-maximal inhibitory concentration (IC50) in data set [1] was 3.2 ± 0.9 µM; in data set [2], greater than 10 µM; in data set [3], 9.1 nM. In data set [4], this compound came in with a kinetic solubility of 0.7 µM (≈ 0.282 µg/mL).
With `COc1ccc(-n2cc(-c3cc4c(N(C)Cc5cccc(C)c5)ncnc4[nH]3)nn2)cc1` [Compound 21a, 6-(1-(4-Methoxyphenyl)-1H-1,2,3-triazol-4-yl)-N-methyl-N-(3-methylbenzyl)-7H-pyrrolo[2,3-d]pyrimidin-4-amine], the IC50 was 6 µM in data set [1], greater than 10 µM in data set [2] and 5.9 nM in data set [3]. The compound further displayed a kinetic solubility in data set [4] of 1.3 µM (≈ 0.553 µg/mL).
The like results for `Cc1cccc(CN(C)c2ncnc3[nH]c(-c4cn(-c5cccnc5)nn4)cc23)c1` [Compound 22a, N-Methyl-N-(3-methylbenzyl)-6-(1-(pyridin-3-yl)-1H-1,2,3-triazol-4-yl)-7H-pyrrolo[2,3-d]pyrimidin-4-amine] were, in that order, 1.2 ± 0.2 µM, greater than 10 µM, 2.3 nM and 11 µM (≈ 4.36 µg/mL).
On to `CN(CC1CCOCC1)c1ncnc2[nH]c(-c3cn(-c4cccnc4)nn3)cc12` [Compound 22b, N-Methyl-6-(1-(pyridin-3-yl)-1H-1,2,3-triazol-4-yl)-N-((tetrahydro-2H-pyran-4-yl)methyl)-7H-pyrrolo[2,3-d]pyrimidin-4-amine], for which the IC50 is 1.6 ± 0.3 µM in data set [1], greater than 10 µM in data set [2] and 2.1 nM in data set [3]. The compound also had a solubility (kinetic) in data set [4] of 37 µM (≈ 14.4 µg/mL).
Regarding `Cc1cccc(CN(C)c2ncnc3[nH]c(-c4cn(Cc5ccccc5)nn4)cc23)c1` [Compound 23a, 6-(1-Benzyl-1H-1,2,3-triazol-4-yl)-N-methyl-N-(3-methylbenzyl)-7H-pyrrolo[2,3-d]pyrimidin-4-amine], the IC50 in data set [1] is greater than 10 µM; in data set [2], greater than 10 µM; in data set [3] it was 2 nM. In data set [4], this compound displayed a solubility (kinetic) of 0.3 µM (≈ 0.123 µg/mL).
In the case of `CN(CC1CCOCC1)c1ncnc2[nH]c(-c3cn(Cc4ccccc4)nn3)cc12` [Compound 23b, 6-(1-Benzyl-1H-1,2,3-triazol-4-yl)-N-methyl-N-((tetrahydro-2H-pyran-4-yl)methyl)-7H-pyrrolo[2,3-d]pyrimidin-4-amine], the IC50 in data set [1] was 3.7 ± 1.9 µM; in data set [2] it was greater than 10 µM; in data set [3], less than 1 nM. This compound returned a kinetic solubility in data set [4] of 4.9 µM (≈ 1.98 µg/mL).
As to `Cc1cccc(CN(C)c2ncnc3[nH]c(-c4cn(Cc5ccc(F)cc5)nn4)cc23)c1` [Compound 24a, 6-(1-(4-Fluorobenzyl)-1H-1,2,3-triazol-4-yl)-N-methyl-N-(3-methylbenzyl)-7H-pyrrolo[2,3-d]pyrimidin-4-amine], the IC50 in data set [1] was greater than 10 µM; in data set [2] it was greater than 10 µM; in data set [3] it was 2 nM. Further, in data set [4], the kinetic solubility worked out at 0.2 µM (≈ 0.0855 µg/mL).
For `CN(CC1CCOCC1)c1ncnc2[nH]c(-c3cn(Cc4ccc(F)cc4)nn3)cc12` [Compound 24b, 6-(1-(4-Fluorobenzyl)-1H-1,2,3-triazol-4-yl)-N-methyl-N-((tetrahydro-2H-pyran-4-yl)methyl)-7H-pyrrolo[2,3-d]pyrimidin-4-amine], the 50% inhibitory concentration (IC50) in data set [1] was 4.6 ± 2.7 µM; in data set [2] it was greater than 10 µM; in data set [3] it was 1.5 nM. In data set [4], the solubility (kinetic) came to 1.7 µM (≈ 0.717 µg/mL).
As to `Cc1ccc(Cn2cc(-c3cc4c(N(C)Cc5cccc(C)c5)ncnc4[nH]3)nn2)cc1` [Compound 25a, N-Methyl-N-(3-methylbenzyl)-6-(1-(4-methylbenzyl)-1H-1,2,3-triazol-4-yl)-7H-pyrrolo[2,3-d]pyrimidin-4-amine], the values for the IC50 in data set [1], in data set [2] and in data set [3] were greater than 10 µM, greater than 10 µM and 6.3 nM, respectively. The compound also had a kinetic solubility in data set [4] of 1.1 µM (≈ 0.466 µg/mL).
With `COc1ccc(Cn2cc(-c3cc4c(N(C)Cc5cccc(C)c5)ncnc4[nH]3)nn2)cc1` [Compound 26a, 6-(1-(4-Methoxybenzyl)-1H-1,2,3-triazol-4-yl)-N-methyl-N-(3-methylbenzyl)-7H-pyrrolo[2,3-d]pyrimidin-4-amine], the figures for the IC50 in data set [1], in data set [2] and in data set [3] were 2.8 ± 0.3 µM, greater than 10 µM and 5.8 nM, respectively. In addition, the solubility (kinetic) in data set [4] worked out at 4.6 µM (≈ 2.02 µg/mL).
As for `COc1ccc(Cn2cc(-c3cc4c(N(C)CC5CCOCC5)ncnc4[nH]3)nn2)cc1` [Compound 26b, 6-(1-(4-Methoxybenzyl)-1H-1,2,3-triazol-4-yl)-N-methyl-N-((tetrahydro-2H-pyran-4-yl)methyl)-7H-pyrrolo[2,3-d]pyrimidin-4-amine], the IC50 was 1.5 ± 0.5 µM in data set [1], greater than 10 µM in data set [2] and less than 1 nM in data set [3]. For the same compound, the solubility (kinetic) in data set [4] was determined as 7.2 µM (≈ 3.12 µg/mL).
On to `Cc1cccc(CN(C)c2ncnc3[nH]c(-c4cn(CCCO)nn4)cc23)c1` [Compound 28a, 3-(4-(4-(Methyl(3-methylbenzyl)amino)-7H-pyrrolo[2,3-d]pyrimidin-6-yl)-1H-1,2,3-triazol-1-yl)propan-1-ol], for which the results for the IC50 in data set [1], in data set [2] and in data set [3] were 1 ± 0.1 µM, greater than 10 µM and less than 1 nM, respectively. The solubility (kinetic) in data set [4] was found to be 5.5 µM (≈ 2.08 µg/mL).
As to `CN(CC1CCOCC1)c1ncnc2[nH]c(-c3cn(CCCO)nn3)cc12` [Compound 28b, 3-(4-(4-(Methyl((tetrahydro-2H-pyran-4-yl)methyl)amino)-7H-pyrrolo[2,3-d]pyrimidin-6-yl)-1H-1,2,3-triazol-1-yl)propan-1-ol], the “CSF1R Ba/F3 IC50” value in data set [1] was “inactive”. Moreover, the 50% inhibitory concentration (IC50) is greater than 10 µM in data set [1], greater than 10 µM in data set [2] and 1.1 nM in data set [3]. Further, the kinetic solubility in data set [4] worked out at 495 µM (≈ 184 µg/mL).
For the compound `Cc1cccc(CN(C)c2ncnc3[nH]c(-c4cn(C5CCOCC5)nn4)cc23)c1` [Compound 29a, N-Methyl-N-(3-methylbenzyl)-6-(1-(tetrahydro-2H-pyran-4-yl)-1H-1,2,3-triazol-4-yl)-7H-pyrrolo[2,3-d]pyrimidin-4-amine], the IC50 in data set [1] was greater than 10 µM; in data set [2] it was greater than 10 µM; in data set [3], less than 1 nM. In addition, in data set [4], the solubility (kinetic) worked out at 20 µM (≈ 8.07 µg/mL).
On to `CN(CC1CCOCC1)c1ncnc2[nH]c(-c3cn(C4CCOCC4)nn3)cc12` [Compound 29b, N-Methyl-6-(1-(tetrahydro-2H-pyran-4-yl)-1H-1,2,3-triazol-4-yl)-N-((tetrahydro-2H-pyran-4-yl)methyl)-7H-pyrrolo[2,3-d]pyrimidin-4-amine], for which the “CSF1R Ba/F3 IC50” value in data set [1] was “No measurable cell activity”. In addition, the half-maximal inhibitory concentration (IC50) was greater than 10 µM in data set [1], greater than 10 µM in data set [2] and less than 1 nM in data set [3]. Moreover, the kinetic solubility in data set [4] was 76 µM (≈ 30.2 µg/mL).

The record behind these values is paper PMC12196347, “Evaluating Triazole-Substituted Pyrrolopyrimidines as CSF1R Inhibitors” (Molecules, 2025).
